{"source": "patent US10131652B2", "about": "“Pyrimidinyloxy benzene derivatives as herbicides” (E. I. DU PONT DE NEMOURS AND COMPANY, priority 2014, dated 2018)", "type_in_all_cases": "in vivo", "key": {"[1]": {"tested_on": "barnyardgrass (Echinochloa crus-galli)", "assay": "Test D flooded paddy test plant response", "settings": "Flood (flooded paddy test), visual rating on scale 0 to 100 (0 no effect, 100 complete control), 13 to 15 days", "from_the_text": "(§1) Plant species in the flooded paddy test consisted of rice (Oryza sativa), small-flower umbrella sedge (Cyperus difformis), ducksalad (Heteranthera limosa), and bamyardgrass (Echinochloa crus-galli) grown to the 2-leaf stage for testing. At time of treatment, test pots were flooded to 3 cm above the soil surface, treated by application of test compounds directly to the paddy water, and then maintained at that water depth for the duration of the test. Treated plants and controls were maintained in a greenhouse for 13 to 15 days, after which time all species were compared to controls and visually evaluated. Plant response ratings, summarized in Table D, are based on a scale of 0 to 100 where 0 is no effect and 100 is complete control. A dash (-) response means no test result."}, "[2]": {"tested_on": "ducksalad (Heteranthera limosa)", "assay": "Test D flooded paddy test plant response", "settings": "Flood (flooded paddy test), visual rating on scale 0 to 100 (0 no effect, 100 complete control), 13 to 15 days", "from_the_text": "as §1"}, "rice (Oryza sativa)": {"tested_on": "rice (Oryza sativa)", "assay": "Test D flooded paddy test plant response", "settings": "Flood (flooded paddy test), visual rating on scale 0 to 100 (0 no effect, 100 complete control), 13 to 15 days", "from_the_text": "as §1"}, "[3]": {"tested_on": "small-flower umbrella sedge (Cyperus difformis)", "assay": "Test D flooded paddy test plant response", "settings": "Flood (flooded paddy test), visual rating on scale 0 to 100 (0 no effect, 100 complete control), 13 to 15 days", "from_the_text": "as §1"}, "[4]": {"tested_on": "barnyardgrass (Echinochloa crus-galli)", "assay": "Test G flooded paddy rice/weed plant response", "settings": "Flood, 21 days, scale 0 to 100 (0 no effect, 100 complete control)", "from_the_text": "(§2) Three plastic pots (ca. 16-cm diameter) per rate were partially filled with sterilized Tama silt loam soil comprising a 35:50:15 ratio of sand, silt and clay and 2.6% organic matter. Separate plantings for each of the three pots were as follows. Seeds from the U.S. of monochoria (Monochoria vaginalis), small-flower umbrella sedge (Cyperus difformis), hardstem bulrush (Scirpus juncoides), and redstem (purple redstem, Ammannia coccinea), were planted into one 16-cm pot for each rate. Seeds from the U.S. of rice flatsedge (Cyperus iria), bearded sprangletop (Leptochloa fascicularis), one stand of 9 or 10 water seeded rice seedlings (Indica rice, Oryza sativa), and two stands of 3 or 4 transplanted rice seedlings (Oryza sativa cv. ‘Japonica—M202’) were planted into one 16-cm pot for each rate. Seeds from the U.S. of bamyardgrass (Echinochloa crus-galli), and late watergrass (Echinochloa oryzicola) were planted into one 16-cm pot for each rate. Plantings were sequential so that crop and weed species were at the 2.0 to 2.5-leaf stage at time of treatment.\n(§3) Potted plants were grown in a greenhouse with day/night temperature settings of 30/27° C., and supplemental balanced lighting was provided to maintain a 16-hour photoperiod. Test pots were maintained in the greenhouse until test completion.\n(§4) At time of treatment, test pots were flooded to 3 cm above the soil surface, treated by application of test compounds directly to the paddy water, and then maintained at that water depth for the duration of the test. Effects of treatments on rice and weeds were visually evaluated by comparison to untreated controls after 21 days. Plant response ratings, summarized in Table G, are based on a scale of 0 to 100 where 0 is no effect and 100 is complete control. A dash (-) response means no test result."}, "[5]": {"tested_on": "bearded sprangletop (Leptochloa fascicularis)", "assay": "Test G flooded paddy rice/weed plant response", "settings": "Flood, 21 days, scale 0 to 100 (0 no effect, 100 complete control)", "from_the_text": "as §2, §3, §4"}, "[6]": {"tested_on": "late watergrass (Echinochloa oryzicola)", "assay": "Test G flooded paddy rice/weed plant response", "settings": "Flood, 21 days, scale 0 to 100 (0 no effect, 100 complete control)", "from_the_text": "as §2, §3, §4"}, "[7]": {"tested_on": "monochoria (Monochoria vaginalis)", "assay": "Test G flooded paddy rice/weed plant response", "settings": "Flood, 21 days, scale 0 to 100 (0 no effect, 100 complete control)", "from_the_text": "as §2, §3, §4"}, "[8]": {"tested_on": "small-flower umbrella sedge (Cyperus difformis)", "assay": "Test G flooded paddy rice/weed plant response", "settings": "Flood, 21 days, scale 0 to 100 (0 no effect, 100 complete control)", "from_the_text": "as §2, §3, §4"}, "[9]": {"tested_on": "water seeded rice seedlings (Indica rice, Oryza sativa)", "assay": "Test G flooded paddy rice/weed plant response", "settings": "Flood, 21 days, scale 0 to 100 (0 no effect, 100 complete control)", "from_the_text": "as §2, §3, §4"}, "Horseweed": {"tested_on": "Horseweed", "assay": "Test F postemergence plant response", "settings": "scale 0 to 100"}}}
{"smiles": "Fc1cccc(Oc2ncc(Cl)cn2)c1-c1cc(C(F)F)on1", "note": "[Compound 55, 5-chloro-2-[2-[5-(difluoromethyl)-3-isoxazolyl]-3-fluorophenoxy]pyrimidine]", "values": [{"measurement": "Plant response rating, Barnyardgrass", "setting": "[1]; 31 g ai/ha", "value": 0}, {"measurement": "Plant response rating, Barnyardgrass", "setting": "[1]; 62 g ai/ha", "value": 0}, {"measurement": "Plant response rating, Barnyardgrass", "setting": "[1]; 125 g ai/ha", "value": 10}, {"measurement": "Plant response rating, Barnyardgrass", "setting": "[1]; 250 g ai/ha", "value": 30}, {"measurement": "Plant response rating, Ducksalad", "setting": "[2]; 31 g ai/ha", "value": 75}, {"measurement": "Plant response rating, Ducksalad", "setting": "[2]; 62 g ai/ha", "value": 80}, {"measurement": "Plant response rating, Ducksalad", "setting": "[2]; 125 g ai/ha", "value": 85}, {"measurement": "Plant response rating, Ducksalad", "setting": "[2]; 250 g ai/ha", "value": 90}, {"measurement": "Plant response rating, Rice", "setting": "rice (Oryza sativa); 31 g ai/ha", "value": 0}, {"measurement": "Plant response rating, Rice", "setting": "rice (Oryza sativa); 62 g ai/ha", "value": 0}, {"measurement": "Plant response rating, Rice", "setting": "rice (Oryza sativa); 125 g ai/ha", "value": 0}, {"measurement": "Plant response rating, Rice", "setting": "rice (Oryza sativa); 250 g ai/ha", "value": 0}, {"measurement": "Plant response rating, Sedge, Umbrella", "setting": "[3]; 31 g ai/ha", "value": 75}, {"measurement": "Plant response rating, Sedge, Umbrella", "setting": "[3]; 62 g ai/ha", "value": 75}, {"measurement": "Plant response rating, Sedge, Umbrella", "setting": "[3]; 125 g ai/ha", "value": 85}, {"measurement": "Plant response rating, Sedge, Umbrella", "setting": "[3]; 250 g ai/ha", "value": 100}, {"measurement": "Plant response rating, Barnyardgrass", "setting": "[4]; 32 g ai/ha", "value": 0}, {"measurement": "Plant response rating, Barnyardgrass", "setting": "[4]; 64 g ai/ha", "value": 75}, {"measurement": "Plant response rating, Barnyardgrass", "setting": "[4]; 125 g ai/ha", "value": 100}, {"measurement": "Plant response rating, Barnyardgrass", "setting": "[4]; 250 g ai/ha", "value": 100}, {"measurement": "Plant response rating, Sprangletop, Brdd.", "setting": "[5]; 32 g ai/ha", "value": 45}, {"measurement": "Plant response rating, Sprangletop, Brdd.", "setting": "[5]; 64 g ai/ha", "value": 80}, {"measurement": "Plant response rating, Sprangletop, Brdd.", "setting": "[5]; 125 g ai/ha", "value": 100}, {"measurement": "Plant response rating, Sprangletop, Brdd.", "setting": "[5]; 250 g ai/ha", "value": 100}, {"measurement": "Plant response rating, Watergrass, Late", "setting": "[6]; 32 g ai/ha", "value": 0}, {"measurement": "Plant response rating, Watergrass, Late", "setting": "[6]; 64 g ai/ha", "value": 0}, {"measurement": "Plant response rating, Watergrass, Late", "setting": "[6]; 125 g ai/ha", "value": 75}, {"measurement": "Plant response rating, Watergrass, Late", "setting": "[6]; 250 g ai/ha", "value": 100}, {"measurement": "Plant response rating, Monochoria", "setting": "[7]; 32 g ai/ha", "value": 100}, {"measurement": "Plant response rating, Monochoria", "setting": "[7]; 64 g ai/ha", "value": 100}, {"measurement": "Plant response rating, Monochoria", "setting": "[7]; 125 g ai/ha", "value": 100}, {"measurement": "Plant response rating, Monochoria", "setting": "[7]; 250 g ai/ha", "value": 100}, {"measurement": "Plant response rating, Sedge, Umbrella", "setting": "[8]; 32 g ai/ha", "value": 98}, {"measurement": "Plant response rating, Sedge, Umbrella", "setting": "[8]; 64 g ai/ha", "value": 100}, {"measurement": "Plant response rating, Sedge, Umbrella", "setting": "[8]; 125 g ai/ha", "value": 100}, {"measurement": "Plant response rating, Sedge, Umbrella", "setting": "[8]; 250 g ai/ha", "value": 100}, {"measurement": "Plant response rating, Rice, Water Seeded", "setting": "[9]; 32 g ai/ha", "value": 45}, {"measurement": "Plant response rating, Rice, Water Seeded", "setting": "[9]; 64 g ai/ha", "value": 100}, {"measurement": "Plant response rating, Rice, Water Seeded", "setting": "[9]; 125 g ai/ha", "value": 100}, {"measurement": "Plant response rating, Rice, Water Seeded", "setting": "[9]; 250 g ai/ha", "value": 100}, {"measurement": "Plant response rating, Horseweed", "setting": "Horseweed; 31 g ai/ha Postemergence", "value": 15}, {"measurement": "Plant response rating, Horseweed", "setting": "Horseweed; 62 g ai/ha Postemergence", "value": 20}]}
